According to ChEMBL document CHEMBL3351565, “Cycloartane-type triterpenes from Euphorbia fischeriana stimulate human CYP3A4 promoter activity” (Bioorg Med Chem Lett, 2014):

Tests used:
CYP3A4 = CYP3A4 (Homo sapiens, UniProt P08684); experiment: (§1) Induction of CYP3A4 in human HepG2 cells at 10 uM after 24 hrs by luciferase reporter gene assay in presence of hPXR relative to control; settings: HepG2 cells with hPXR and CYP3A4 luciferase reporter
Hepatocyte = experiment: Induction of CYP3A4 mRNA expression in human primary hepatocytes at 10 uM after 24 hrs by RT-PCR analysis
Cytochrome P450 3A4 = Cytochrome P450 3A4 (Homo sapiens, UniProt P08684); experiment: as §1; settings: hepg2, 24 h, 10 µM
Chain of Cytochrome P450 3A4 (P08684 whole entry): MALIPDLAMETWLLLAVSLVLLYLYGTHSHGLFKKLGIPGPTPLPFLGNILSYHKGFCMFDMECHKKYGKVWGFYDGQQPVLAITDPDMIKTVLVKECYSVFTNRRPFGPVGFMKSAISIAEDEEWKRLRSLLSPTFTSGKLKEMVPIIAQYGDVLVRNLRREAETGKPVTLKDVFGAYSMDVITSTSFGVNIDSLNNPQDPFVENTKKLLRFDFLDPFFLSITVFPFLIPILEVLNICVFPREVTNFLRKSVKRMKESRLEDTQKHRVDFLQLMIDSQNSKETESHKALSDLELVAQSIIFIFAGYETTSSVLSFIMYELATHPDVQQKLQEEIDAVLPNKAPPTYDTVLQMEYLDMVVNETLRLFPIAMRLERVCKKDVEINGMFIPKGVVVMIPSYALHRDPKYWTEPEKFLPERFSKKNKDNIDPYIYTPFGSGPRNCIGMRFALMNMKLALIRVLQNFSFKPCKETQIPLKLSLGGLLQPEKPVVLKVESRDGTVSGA

Chain of CYP3A4 (P08684 whole entry): as above

Structure (SMILES): CC(C)C(=O)CC[C@@H](C)[C@H]1CC[C@@]2(C)[C@@H]3CC[C@H]4C(C)(C)[C@@H](O)CC[C@@]45C[C@@]35CC[C@]12C
- fold induction at 24 h, 10 µM (CYP3A4): 4
- Activity (Hepatocyte): Active

Structure (SMILES): CC(=O)O[C@H]1CC[C@]23C[C@]24CC[C@]2(C)[C@@H]([C@H](C)CCC(=O)C(C)C)CC[C@@]2(C)[C@@H]4CC[C@H]3C1(C)C
- Activity (Cytochrome P450 3A4): Not Active

Structure (SMILES): C=C(CC[C@@H](C)[C@H]1CC[C@@]2(C)[C@@H]3CC[C@H]4C(C)(C)[C@@H](O)CC[C@@]45C[C@@]35CC[C@]12C)C(C)(C)O
- fold induction at 24 h, 10 µM (CYP3A4): 4
- Activity (Hepatocyte): Active

Structure (SMILES): CC(=O)O[C@H]1CC[C@]2(C)C3=CC=C4[C@@H]5CC(C)(C)CC[C@]5(C)CC[C@@]4(C)[C@]3(C)CC[C@H]2C1(C)C
- Activity (Cytochrome P450 3A4): Not Active

Structure (SMILES): C=C(C)[C@@H]1CC[C@]2(C)CC[C@]3(C)[C@H](CC[C@@H]4[C@@]5(C)CC[C@@H](O)C(C)(C)[C@@H]5CC[C@]43C)[C@@H]12
- Activity (Cytochrome P450 3A4): Not Active

Structure (SMILES): CC(C)C1(CC[C@@H](C)[C@H]2CC[C@@]3(C)[C@@H]4CC[C@H]5C(C)(C)[C@@H](O)CC[C@@]56C[C@@]46CC[C@]23C)CO1 (mixture of isomers)
- Activity (Cytochrome P450 3A4): Active

Structure (SMILES): COC(CO)(CC[C@@H](C)[C@H]1CC[C@@]2(C)[C@@H]3CC[C@H]4C(C)(C)[C@@H](O)CC[C@@]45C[C@@]35CC[C@]12C)C(C)C (mixture of isomers)
- fold induction at 24 h, 10 µM (CYP3A4): 9.4
- Activity (Hepatocyte): Not Active

Structure (SMILES): C=C(C)[C@@H]1CC[C@]2(C)CC[C@]3(C)[C@H](CC[C@@H]4[C@@]5(C)CC[C@H](O)C(C)(C)[C@@H]5CC[C@]43C)[C@@H]12 [LUPEOL]
- Activity (Cytochrome P450 3A4): Not Active
